For 26 compounds, EC50 results are on record in patent US20230019280A1, “SUBSTITUTED ISOINDOLONYL 2,2'-BIP[…], ANALOGUES THEREOF, AND METHODS USING SAME” (priority 2019, published 2023).

The assay relates to HBsAg. Briefly: HBsAg assay (inhibition of HBsAg in HepG2.2.15 cells). The class given is cell-based, hepatitis B virus. Particulars: read-out: sAg EC50; HepG2.2.15 cells; supernatant HBsAg by CLIA at day 6 after exposure of compounds. Here is the method:
Inhibition of HBsAg was determined in HepG2.2.15 cells. Cells were maintained in culture medium containing 10% fetal calf serum, […], Glutamine, penicillin/streptomycin. Cells were seeded in 96-well collagen-coated plate at a density of 30,000 cells/well. Serially diluted compounds were added to cells next day at the final DMSO concentration of 0.5%. Cells were incubated with compounds for 2-3 days, after which medium was removed. Fresh medium containing compounds was added to cells for additional 3-4 days. At day 6 after exposure of compounds, supernatant was collected, the HBsAg immunoassay (microplate-based chemiluminescence immunoassay kits, CLIA, Autobio Diagnosics Co., Zhengzhou, China, Catalog #CL0310-2) was used to determine the level of HBsAg according to manufactory instruction. Dose-response curves were generated and the EC50 value (effective concentrations that achieved 50% inhibitory effect) were determined using XLfit software. In addition, cells were seeded at a density of 5,000 cells/well for determination of cell viability in the presence and absence of compounds by using CellTiter-Glo reagent (Promega).
Turning to `CCC1c2cc(OC)c(OC)cc2C(=O)N1c1ccnc(-c2ncccn2)n1` (single isomer, unassigned) [Example 2, 2-([2,2′-Bipyrimidin]-4-yl)-3-ethyl-5,6-dimethoxyisoindolin-1-one], the EC50 was determined as 13 nM. In the case of `CCC1c2cc(OC)c(OC)cc2C(=O)N1c1ccnc(-c2ncccn2)n1` (single isomer, unassigned) [Example 3, 2-([2,2′-Bipyrimidin]-4-yl)-3-ethyl-5,6-dimethoxyisoindolin-1-one] it was 1000 nM. As for `CCC1c2cc(OC)c(C)cc2C(=O)N1c1ccnc(-c2ncccn2)n1` (single isomer, unassigned) [Example 4, 2-([2,2′-Bipyrimidin]-4-yl)-3-ethyl-5-methoxy-6-methylisoindolin-1-one], the EC50 worked out at 8 nM.

With `CCC1c2cc(OC)c(C)cc2C(=O)N1c1ccnc(-c2ncccn2)n1` (single isomer, unassigned) [Example 5, 2-([2,2′-Bipyrimidin]-4-yl)-3-ethyl-5-methoxy-6-methylisoindolin-1-one], the EC50 amounted to 1000 nM. In the case of `CCC1c2cc(OC)c(Cl)cc2C(=O)N1c1ccnc(-c2ncccn2)n1` (single isomer, unassigned) [Example 6, 2-([2,2′-Bipyrimidin]-4-yl)-6-chloro-3-ethyl-5-methoxyisoindolin-1-one] it was 14 nM.

Turning to `CCC1c2cc(OC)c(Cl)cc2C(=O)N1c1ccnc(-c2ncccn2)n1` (single isomer, unassigned) [Example 7, 2-([2,2′-Bipyrimidin]-4-yl)-6-chloro-3-ethyl-5-methoxyisoindolin-1-one], the EC50 stood at 8000 nM. Turning to `CCC1c2c(F)cc(Cl)cc2C(=O)N1c1ccnc(-c2ncccn2)n1` (single isomer, unassigned) [Example 8, 2-([2,2′-Bipyrimidin]-4-yl)-6-chloro-3-ethyl-4-fluoroisoindolin-1-one], the EC50 is 10 nM.

For the compound `CCC1c2c(F)cc(Cl)cc2C(=O)N1c1ccnc(-c2ncccn2)n1` (single isomer, unassigned) [Example 9, 2-([2,2′-Bipyrimidin]-4-yl)-6-chloro-3-ethyl-4-fluoroisoindolin-1-one], the EC50 was found to be 5000 nM. Take `COc1ccc(C2c3cc(OC)c(OC)cc3C(=O)N2c2ccnc(-c3ncccn3)n2)cc1` (single isomer, unassigned) [Example 10, 2-([2,2′-Bipyrimidin]-4-yl)-5,6-dimethoxy-3-(4-methoxyphenyl)isoindolin-1-one]: the EC50 came to 13 nM. The value for `COc1ccc(C2c3cc(OC)c(OC)cc3C(=O)N2c2ccnc(-c3ncccn3)n2)cc1` (single isomer, unassigned) [Example 11, 2-([2,2′-Bipyrimidin]-4-yl)-5,6-dimethoxy-3-(4-methoxyphenyl)isoindolin-1-one] was 4000 nM; that for `COc1cccc(C2c3cc(OC)c(OC)cc3C(=O)N2c2ccnc(-c3ncccn3)n2)c1` (single isomer, unassigned) [Example 12, 2-([2,2′-Bipyrimidin]-4-yl)-5,6-dimethoxy-3-(3-methoxyphenyl)isoindolin-1-one] was 5 nM; that for `COc1cccc(C2c3cc(OC)c(OC)cc3C(=O)N2c2ccnc(-c3ncccn3)n2)c1` (single isomer, unassigned) [Example 13, 2-([2,2′-Bipyrimidin]-4-yl)-5,6-dimethoxy-3-(3-methoxyphenyl)isoindolin-1-one] was 1000 nM. The value for `COc1cc2c(cc1OC)C(Cc1ccccc1)N(c1ccnc(-c3ncccn3)n1)C2=O` (single isomer, unassigned) [Example 14, 2-([2,2′-Bipyrimidin]-4-yl)-3-benzyl-5,6-dimethoxyisoindolin-1-one] was 100 nM; that for `COc1cc2c(cc1OC)C(Cc1ccccc1)N(c1ccnc(-c3ncccn3)n1)C2=O` (single isomer, unassigned) [Example 15, 2-([2,2′-Bipyrimidin]-4-yl)-3-benzyl-5,6-dimethoxyisoindolin-1-one] was 40000 nM; that for `COc1cc2c(cc1OC)C(CCC(F)(F)F)N(c1ccnc(-c3ncccn3)n1)C2=O` (single isomer, unassigned) [Example 16, 2-([2,2′-Bipyrimidin]-4-yl)-5,6-dimethoxy-3-(3,3,3-trifluoropropyl)isoindolin-1-one] was 30000 nM.

On to `COc1cc2c(cc1OC)C(CCC(F)(F)F)N(c1ccnc(-c3ncccn3)n1)C2=O` (single isomer, unassigned) [Example 17, 2-([2,2′-Bipyrimidin]-4-yl)-5,6-dimethoxy-3-(3,3,3-trifluoropropyl)isoindolin-1-one], for which the EC50 is 20 nM. The value for `COc1cc2c(cc1OC)C(c1ccc(C)nc1)N(c1ccnc(-c3ncccn3)n1)C2=O` (single isomer, unassigned) [Example 18, 2-([2,2′-Bipyrimidin]-4-yl)-5,6-dimethoxy-3-(6-methylpyridin-3-yl)isoindolin-1-one] was 10 nM. In the case of `COc1cc2c(cc1OC)C(c1ccc(C)nc1)N(c1ccnc(-c3ncccn3)n1)C2=O` (single isomer, unassigned) [Example 19, 2-([2,2′-Bipyrimidin]-4-yl)-5,6-dimethoxy-3-(6-methylpyridin-3-yl)isoindolin-1-one] it was 390 nM. The value for `CCC1c2cc(Cl)cc(F)c2C(=O)N1c1ccnc(-c2ncccn2)n1` (single isomer, unassigned) [Example 20, 2-([2,2′-Bipyrimidin]-4-yl)-5-chloro-3-ethyl-7-fluoroisoindolin-1-one] was 45 nM; that for `CCC1c2cc(Cl)cc(F)c2C(=O)N1c1ccnc(-c2ncccn2)n1` (single isomer, unassigned) [Example 21, 2-([2,2′-Bipyrimidin]-4-yl)-5-chloro-3-ethyl-7-fluoroisoindolin-1-one] was 25000 nM.

Consider `COc1cc2c(cc1OC)C(c1ccccn1)N(c1ccnc(-c3ncccn3)n1)C2=O` (single isomer, unassigned) [Example 22, 2-([2,2′-Bipyrimidin]-4-yl)-5,6-dimethoxy-3-(pyridin-2-yl)isoindolin-1-one], for which the EC50 was 4 nM.

On to `COc1cc2c(cc1OC)C(c1ccccn1)N(c1ccnc(-c3ncccn3)n1)C2=O` (single isomer, unassigned) [Example 23, 2-([2,2′-Bipyrimidin]-4-yl)-5,6-dimethoxy-3-(pyridin-2-yl)isoindolin-1-one], for which the EC50 is 500 nM. In the case of `CCC1c2cc(OC)c(OC)cc2C(=O)N1c1ccnc(-c2ncccn2)c1` (single isomer, unassigned) [Example 33, 3-Ethyl-5,6-dimethoxy-2-(2-(pyrimidin-2-yl)pyridin-4-yl)isoindolin-1-one] it was 7 nM. The value for `CCC1c2cc(OC)c(OC)cc2C(=O)N1c1ccnc(-c2ncccn2)c1` (single isomer, unassigned) [Example 34, 3-Ethyl-5,6-dimethoxy-2-(2-(pyrimidin-2-yl)pyridin-4-yl)isoindolin-1-one] was 62 nM; that for `COc1cc2c(cc1OC)C(CC(C)C)N(c1ccnc(-c3ncccn3)n1)C2=O` (single isomer, unassigned) [Example 40, 2-([2,2′-bipyrimidin]-4-yl)-3-isobutyl-5,6-dimethoxyisoindolin-1-one] was 10 nM; that for `COc1cc2c(cc1OC)C(CC(C)C)N(c1ccnc(-c3ncccn3)n1)C2=O` (single isomer, unassigned) [Example 41, 2-([2,2′-Bipyrimidin]-4-yl)-3-isobutyl-5,6-dimethoxyisoindolin-1-one] was 1000 nM.
